Test results as given in article PMC2637359 (Journal of cardiovascular pharmacology, 2008).

Key:
[1] = Plasma cholesterol levels in ApoE -/- mice; assay type: in vivo, mouse; conditions: AEPU-treated ApoE -/- mice
[2] = AEPU metabolism in rat liver S9 fraction; assay type: in vitro ADME
in vivo = conditions: ApoE -/-, mouse, plasma, oral, 90 µg/ml in drinking water
[3] = molecular target: T1, purified murine sEH recombinant enzyme (Mus musculus, UniProt P34914); assay: sEH activity fluorescent assay; assay type: biochemical
T1 sequence (P34914 1-554): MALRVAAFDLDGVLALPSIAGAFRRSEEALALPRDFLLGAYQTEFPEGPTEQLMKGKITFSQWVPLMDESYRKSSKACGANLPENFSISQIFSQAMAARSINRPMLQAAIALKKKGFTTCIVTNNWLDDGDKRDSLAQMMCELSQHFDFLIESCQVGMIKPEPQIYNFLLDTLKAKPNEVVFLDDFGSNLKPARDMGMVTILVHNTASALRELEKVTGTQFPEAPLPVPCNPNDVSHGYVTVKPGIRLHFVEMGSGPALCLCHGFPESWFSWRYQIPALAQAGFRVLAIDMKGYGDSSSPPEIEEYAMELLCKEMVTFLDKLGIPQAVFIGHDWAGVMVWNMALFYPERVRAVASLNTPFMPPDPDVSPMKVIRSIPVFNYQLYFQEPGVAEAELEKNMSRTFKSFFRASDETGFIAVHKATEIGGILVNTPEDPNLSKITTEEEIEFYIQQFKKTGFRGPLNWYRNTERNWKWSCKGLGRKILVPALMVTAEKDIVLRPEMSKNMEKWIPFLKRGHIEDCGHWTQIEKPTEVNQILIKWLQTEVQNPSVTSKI

[4] = Single oral dose pharmacokinetic study in mice; assay type: in vivo, mouse; conditions: AEPU by oral gavage 10 mg/kg, over 24 hours

Row | SMILES | Plasma cholesterol level ([1]; control 2.5±0.6 mM) | Plasma cholesterol level ([1]; control 96.2±23.1 mg/dl) | Metabolism in the absence of NADPH ([2]; rat S9 liver preparation without NADPH) | AEPU remaining in the mixture ([2]; rat liver S9 2.5 mg/mL, NADPH generating system, AEPU 10 µM, 60 min) | concentration at 8 weeks (in vivo) | IC50 [3] | fold less potent on the enzyme than AEPU ([3]; murine sEH) | times more abundant in the plasma than AEPU [4]
1 | CCOCCOCCOCCCCCNC(=O)NC12CC3CC(CC(C3)C1)C2 [AEPU, 1-adamantan-3-(5-(2-(2-ethylethoxy)ethoxy)pentyl)urea] | 2.5 ± 0.9 mM | 96.2 ± 34.6 mg/dL | no metabolism | less than 10% | – | – | – | –
2 | CCOCCOCCOCCCCCNC(=O)NC12CC3CC(CC(O)(C3)C1)C2 [Compound 1010, 1-{5-[2-(2-ethoxyethoxy)-ethoxy]-pentyl}-3-(3-hydroxy-adamantan-1-yl)-urea] | – | – | – | – | 565 nM | 78 ± 19 nM | 28 fold | roughly 5,000 times
3 | O=C(NCCCCCOCCOCCOCCO)NC12CC3CC(CC(C3)C1)C2 [Compound 975, 1-adamantan-1-yl-3-(5-{2-[2-(2-hydroxy-ethoxy)-ethoxy]-ethoxy}-pentyl)-urea] | – | – | – | – | – | 4.7 ± 0.7 nM | – | –
